Data taken from publication PMC9182347, “α-Glucosidase, α-Amylase and Antioxidant Evaluations of Isolated Bioactives from Wild Strawberry” (Molecules, 2022).
Values joined by “and” are separate entries in the source; they are usually repeats but may differ in a detail not shown here. Equal entries are not always repeated.

Key:
[1] = system: α-amylase; assay: In vitro α-amylase inhibition; assay type: biochemical; conditions: for α-Amylase Percent Inhibition: mean ± SEM, n = 3
Description: The amylase solution was prepared in phosphate buffer. The solutions of the F. indica and isolated compounds (62.50 to 1000 µg/mL) were added to the amylase solution and allowed to react. After reaction completion, starch solution was added and incubated as per the standard method. Afterwards, a solution of dinitro-salicylic acid was added to both test and control groups. The final solutions were heated for 3 min in boiling water and the absorbances were measured at […]. The experiments were performed in triplicates and percent inhibitions were calculated.
(§1) The half inhibitory concentration (IC50) was calculated using Microsoft Excel program as per our previously reported method.

[2] = molecular target: α-glucosidase (Saccharomyces cerevisiae, UniProt P53341); assay type: biochemical
Description: The α-glucosidase solution (120 μL) of 0.50 U/mL in 0.10 M phosphate buffer (pH 6.90) was prepared and p-nitrophenyl-α-D-glucopyranoside (5 mM) was added as substrate solution. Different concentrations ranging from 62.50 µg/mL to 1000 µg/mL of the crude extracts, semi-purified fractions and isolated compounds of F. indica were prepared accordingly. The plant’s samples (extracts, semi-purified and purified compounds) were mixed with the solutions of enzyme as per the experiment and were incubated at 37 °C.
After initial incubation for 15 min, 20 μL p-nitrophenyl-α-D-glucopyranoside solution was mixed and was again incubated in the same way. Finally, 80 μL solution of sod. carbonate (0.20 M) was added to finish up the reaction. The solution containing all the substrates except α-glucosidase served as a blank. The absorbances of experiments were measured at 405 nm. The experiments were repeated 3 times and the calculations were made as per the standard protocols.
as §1

[3] = DPPH free radicals scavenging assay; conditions: for DPPH Percent Inhibition: mean ± SEM, n = 3
Description: The antioxidant activity was carried out for F. indica extracts, semi-purified ethyl acetate fractions and isolated compounds using DPPH free radicals. DPPH solution was prepared (24 mg/100 mL of methanol). Stock solutions (1 mg/mL) of F. indica extracts and isolated compounds were prepared in methanol and then diluted to 1000, 500, 250, 125, 62.5 μg/mL. Sample and DPPH solutions were mixed in a ratio of 1:1 and were incubated at 23 °C for 30 min. Finally, absorbance was measured at 517 nm using UV spectrophotometer (Thermo electron corporation, Waltham, MA, USA). Ascorbic acid was used as positive control. Percent radical scavenging activity was measured using the reported equations [61].
as §1

Sequence of α-glucosidase (P53341 whole entry): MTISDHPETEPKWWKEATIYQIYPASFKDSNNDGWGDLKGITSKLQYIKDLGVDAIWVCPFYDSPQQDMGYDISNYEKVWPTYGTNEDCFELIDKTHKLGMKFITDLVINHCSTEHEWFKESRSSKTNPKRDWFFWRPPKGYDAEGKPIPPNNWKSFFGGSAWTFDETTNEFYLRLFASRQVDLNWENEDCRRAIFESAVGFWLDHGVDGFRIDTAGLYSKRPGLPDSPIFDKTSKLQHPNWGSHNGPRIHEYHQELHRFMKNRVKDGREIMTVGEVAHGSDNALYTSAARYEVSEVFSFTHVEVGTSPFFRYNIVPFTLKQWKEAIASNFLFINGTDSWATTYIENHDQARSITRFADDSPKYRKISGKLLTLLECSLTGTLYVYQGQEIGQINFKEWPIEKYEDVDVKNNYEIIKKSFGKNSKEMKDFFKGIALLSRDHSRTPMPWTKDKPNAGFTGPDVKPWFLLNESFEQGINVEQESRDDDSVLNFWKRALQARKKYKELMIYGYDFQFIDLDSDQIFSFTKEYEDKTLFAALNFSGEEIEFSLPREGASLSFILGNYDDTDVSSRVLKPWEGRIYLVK

What does the source list for `C[C@H]1O[C@H](O[C@H]2[C@H](O)[C@@H](O)[C@@H](O[C@H]3[C@H](O)[C@@H](O)C(O)O[C@@H]3CO)O[C@@H]2CO)[C@H](O)[C@@H](O)[C@@H]1N[C@H]1C=C(CO)[C@@H](O)[C@H](O)[C@H]1O` (stereo partly shown) [Acarbose, acarbose]?
α-Amylase Percent Inhibition ([1]; 62.5 μg/mL): 63.26 ± 0.93%; α-Amylase Percent Inhibition ([1]; 125 μg/mL): 67.05 ± 0.49%; α-Amylase Percent Inhibition ([1]; 250 μg/mL): 71.56 ± 0.49%; α-Amylase Percent Inhibition ([1]; 500 μg/mL): 74.03 ± 0.64%; α-Amylase Percent Inhibition ([1]; 1000 μg/mL): 82.43 ± 0.52%; α-Glucosidase Percent Inhibition [2]: 96.00 ± 0.30% and 90.61 ± 0.43% and 84.03 ± 0.86% and 77.58 ± 0.77% and 71.48 ± 0.74%

Which “DPPH IC50” value [3] does the source give for `O=C1O[C@H]([C@@H](O)CO)C(O)=C1O` [Ascorbic acid] here?
The value was 4.98 µg/mL.

What about the “DPPH Percent Inhibition” value ([3]; 62.5 μg/mL) of the same compound?
Its value is 75.45 ± 0.90%.

What about the “DPPH Percent Inhibition” value ([3]; 125 μg/mL) of the same compound?
The value was 77.61 ± 0.43%.

And the “DPPH Percent Inhibition” value ([3]; 250 μg/mL)?
The value was 82.40 ± 0.20%.

And the “DPPH Percent Inhibition” value ([3]; 500 μg/mL)?
Its value is 87.08 ± 0.47%.

What about the “DPPH Percent Inhibition” value ([3]; 1000 μg/mL) of the same compound?
Its value is 91.90 ± 0.96%.

Which results are given for `COc1c(O)c(C)c(Cl)c(OC)c1Cl` [Compound 1, 2,4-dichloro-6-hydroxy-3,5-dimethoxytoluene]?
α-Amylase IC50 [1]: 15.03 µg/mL and 17.65 µg/mL; DPPH IC50 [3]: 7.62 µg/mL

What does the source list for `CC(C)=CC(=O)CC(C)c1ccc(C)cc1` (stereo not shown) [Compound 2, 2-methyl-6-(4-methylphenyl)-2-hepten-4-one]?
α-Amylase IC50 [1]: 16.56 µg/mL; DPPH IC50 [3]: 14.30 µg/mL
